The values below come from the METLIN SMRT retention time set (Domingo-Almenara et al. 2019).

Molecules are shown by their SMILES.

The series is described as follows: gradient 5% acetonitrile 3 min, to 50% in 2 min, to 85% in 15 min, held 3 min, 100 µL/min. Conditions: column: Zorbax Extend-C18 2.1 x 50 mm; eluents: water / acetonitrile, 0.1% formic acid. The gist of the method: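 Values are retention times taken from adduct peaks that software picked and an analyst inspected. The pure standards were run as mixtures of ~100 molecules on HPLC linked to a quadrupole time-of-flight mass spectrometer, in positive and negative ionization mode. A Zorbax Extend-C18 column (2.1 × 50 mm, 1.8 μm) was used at 100 μL/min with water and acetonitrile, each including 0.1% formic acid.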
The molecule `Cc1cc(C(=O)N2CCC(c3nc4ccccc4s3)CC2)no1` displayed an RP-LC retention time of 763 s.
Molecule `COc1cccc(-c2n[nH]c3c2C(c2ccc(O)cc2)N(C)C3=O)c1` (stereo not given) showed an RP-LC retention time of 693 s.
Molecule `C=CCc1ccccc1OCC(O)CNC(C)C` (stereo not given) gave an RP-LC retention time of 706 s.
In the case of `O=C(c1ccc(OCCCc2cnc[nH]2)cc1)C1CC1`, the RP-LC retention time worked out at 680 s.
Take `c1ccc(-c2noc(-c3ccccc3OC3CNC3)n2)cc1`: the RP-LC retention time was found to be 679 s.
As to `COc1ccc(NC(=O)N2CCCC2c2nc(-c3ccccc3OC)no2)c(C)c1` (stereo not given), the RP-LC retention time amounted to 809 s.
Next, `CC(C)n1c(=O)oc2cc(-c3noc(-c4cccc(C#N)c4)n3)ccc21`: 1090 s.
`CCOCC(=O)N1CCCn2cc(-c3ccccc3)nc21` had an RP-LC retention time of 621 s.
The molecule `O=S(=O)(c1ccc2nncn2c1)N(Cc1ccccc1Cl)c1ccccc1` yielded an RP-LC retention time of 885 s.
`O=C(NCC(=O)N1CCCc2ccccc21)c1ccccc1F` showed an RP-LC retention time of 831 s.
Turning to `CCc1nccn1Cc1nc(-c2ccc(C)c(C)c2)no1`, the RP-LC retention time was 681 s.
Consider `Cc1cc2nc(C(=O)NC3CC3)c(=O)n(C)c2cc1C`, for which the RP-LC retention time turned out to be 714 s.
Turning to `COc1cc2c(cc1OC)C1C(C(=O)NCc3ccc4c(c3)OCO4)c3ccccc3C(=O)N1CC2` (stereo not given), the RP-LC retention time is 753 s.
The molecule `COC(=O)c1c(NCc2c(C)noc2C)c2cccc(Cl)c2[nH]c1=O` displayed an RP-LC retention time of 706 s.
Next, `CC(C)CN1C(=O)CCc2cc(NS(=O)(=O)c3cccs3)ccc21`: 819 s.
Next, `COc1cccc(CNC(=O)C2CCc3nc(N4CCOCC4)ncc3C2)c1` (stereo not given): 660 s; `CCOc1ccc(-c2[nH]nc3nc(-c4cccc(OC)c4)cc(C(=O)O)c23)cc1`: 821 s; `COCCOCc1nc(C2CCN(C(=O)NC3CCCCC3)CC2)no1`: 709 s.
In the case of `Cc1cccc(NC(=O)Nc2c(-c3cccc(C)c3)nc3ccccn23)c1`, the RP-LC retention time is 716 s.
Regarding `COc1ccc(CCNC(=O)C2CCN(S(=O)(=O)c3cn(C(C)C)cn3)CC2)cc1OC`, the RP-LC retention time came to 689 s.
In turn, `O=C(NCCN1CCc2ccccc2C1)C1CCN(c2nnc3ccccn23)CC1` yielded an RP-LC retention time of 563 s.
With `CCOC(=O)c1c(S(=O)(=O)N2CCC(C(=O)NC3CCCCCCC3)CC2)c(C)n(C)c1C` the figure was 932 s.
`O=S(=O)(c1ccc(-c2nnc(C3CCC3)o2)o1)N1CCCC1` returned an RP-LC retention time of 846 s.
`CC(C)NC(=O)Cn1cnc2nc(N3CCCC(C(=O)NC4CC4)C3)sc2c1=O` (stereo not given): the RP-LC retention time was 608 s.
Molecule `CC(C)(C)c1csc(-c2csc(S(=O)(=O)Nc3ccc(F)c(F)c3)c2)n1` showed an RP-LC retention time of 1260 s.
The molecule `Cc1ccccc1Cn1cc(S(=O)(=O)N2CCOCC2)ccc1=O` came in with an RP-LC retention time of 784 s.
`O=C(CCc1c[nH]c2ccccc12)N1CCOc2ccc(N3CCOCC3)cc2C1` returned an RP-LC retention time of 770 s.
In the case of `CC1CN(Cc2nc3c(c(=O)n(C)c(=O)n3C)n2Cc2ccccc2Cl)CC(C)O1` (stereo not given), the RP-LC retention time was 751 s.
`O=C(Nc1nc(-c2cc(Cl)sc2Cl)cs1)c1ccc([N+](=O)[O-])s1` had an RP-LC retention time of 1310 s.
In the case of `Cc1ccc(C2=NC3(CCN(C(=O)c4ccc(F)cc4F)CC3)ON2)cc1`, the RP-LC retention time was determined as 855 s.
With `Cc1ccc(NC(=O)N2CCCC(C)(C(=O)NCc3ccccc3)C2)c(Cl)c1` (stereo not given) the figure was 993 s.
As to `Cc1nn(C)cc1S(=O)(=O)Nc1ccc(C(F)(F)F)cc1`, the RP-LC retention time is 753 s.
For `Fc1ccc(-c2ccc(CNCc3cccs3)o2)cc1`, the RP-LC retention time was determined as 706 s.
Next, `O=C(Nc1cnc(N2CCCCC2)nc1)c1ccc(Cl)s1`: 1020 s.
The molecule `Cc1cccc(N2CCN(S(=O)(=O)c3cc(-c4nnc(C5CCC5)o4)co3)CC2)c1` came in with an RP-LC retention time of 1110 s.
`CCCCN(C)C(=O)Cn1c(C2CC(=O)N(C3CCCC3)C2)nc2ccccc21` (stereo not given) had an RP-LC retention time of 680 s.
Next, `O=C(CCC1CCCN(c2cc(NC3CC3)ncn2)C1)N1CCCN(c2ncccn2)CC1` (stereo not given): 618 s; `CSc1cccc(NC(=O)Nc2cccc(-c3ccc(N4CCOCC4)nn3)c2)c1`: 742 s; `CCOC(=O)c1[nH]c(C)c(CCC(=O)N2CCC(C(=O)NCc3ccc(Cl)cc3)CC2)c1C`: 828 s.
Next, `CCn1nccc1C(=O)N1CCC(c2noc(N)c2C)CC1`: 622 s; `O=C(NCCc1ccccc1)N1CCc2nc(-c3ccc(F)cc3)ncc2C1`: 900 s; `O=C(NCC(O)c1ccsc1)NC1CCCCC1` (stereo not given): 658 s.
Molecule `CCOC(=O)c1[nH]c(C)c(C(=O)C(C)N(C(=O)c2ccc(Cl)cc2)C2CC2)c1C` (stereo not given) came in with an RP-LC retention time of 978 s.
For the molecule `CCc1nc(-c2csc(S(=O)(=O)N3CCC(C(=O)NC4CCCCCC4)CC3)c2)no1`, the RP-LC retention time stood at 997 s.
With `CCCn1c(=O)sc2cc(S(=O)(=O)N3CCC(C(=O)Nc4ccc(F)cc4C)CC3)ccc21` the figure was 974 s.
Next, `COc1ccc(CNC(=O)C2CCCN(C(=O)c3[nH]c(C)c(C(=O)OC(C)C)c3C)C2)cc1` (stereo not given): 812 s.
Take `Cc1ccc(F)c(NS(=O)(=O)c2cc(-c3[nH]ncc3C(=O)N3CCOCC3)oc2C)c1`: the RP-LC retention time was 678 s.
In turn, `CCn1cc(-c2ccc(Cl)cc2)cc1C(=O)NCCN1CCOCC1` displayed an RP-LC retention time of 705 s.
With `CCNS(=O)(=O)c1ccc(NC(=O)C2CCN(C(=O)C(C)(C)C)CC2)cc1`, the RP-LC retention time came out at 722 s.
With `O=C(NCc1ccc2c(c1)OCO2)c1ncoc1-c1ccccc1C(=O)N1CCCC1` the figure was 757 s.
Turning to `CCN1c2ccccc2C(=O)NC12CCN(C(=O)Cc1ccc(C)cc1)CC2`, the RP-LC retention time was 823 s.
`NC(N)=Nc1nc2ccc([N+](=O)[O-])cc2[nH]1` returned an RP-LC retention time of 651 s.
For the molecule `CCN1C(=O)c2cc(C(=O)NCc3ccccc3F)nn2CC1(C)C(=O)NC1CCCC1` (stereo not given), the RP-LC retention time was determined as 659 s.
With `O=C(NCCN1CCN(c2ccc(F)cc2)CC1)C(=O)NCc1ccc(F)cc1`, the RP-LC retention time stood at 588 s.
`Cc1cc(C)n(-c2cc(N3CCCC(C(=O)Nc4cccc(C(F)(F)F)c4)C3)ncn2)n1` (stereo not given) gave an RP-LC retention time of 1060 s.
With `CCCNC(=O)c1nc(N2CCSCC2)c2cnn(C)c2n1` the figure was 719 s; with `Cc1ccc(CNC(=O)CCc2nc3c(C)cccc3c(=O)n2C)cc1C`, 892 s; with `O=C(CCc1cc(Cl)no1)N1CCC(c2nc(C3CCOCC3)no2)C1` (stereo not given), 701 s.
As for `COc1ccc(NC(=O)Cc2csc(NC(=O)C3CC3)n2)cc1C`, the RP-LC retention time came out at 706 s.
Molecule `COc1ccccc1NC(=O)CSC1CCc2ccccc2NC1=O` (stereo not given) came in with an RP-LC retention time of 793 s.
`COc1ccc(-c2ccc(=O)n(Cc3nc(-c4ccccc4OC)no3)n2)cc1` gave an RP-LC retention time of 891 s.
On to `COC(=O)Cn1c(C2CC(=O)N(c3cc(Cl)ccc3OC)C2)nc2ccccc21` (stereo not given), for which the RP-LC retention time is 758 s.
`Cc1cccc(N2CCN(c3cc(C)nc4c5c(C)cc(C)nc5nn34)CC2)n1` came in with an RP-LC retention time of 561 s.
`NS(=O)(=O)c1ccc(CCNS(=O)(=O)c2ccc(-c3cc(C(F)(F)F)on3)o2)cc1` showed an RP-LC retention time of 874 s.
Next, `Cc1ccc2c(c1)C1CC(C)(O2)N(c2cccc(C(=O)NCc3ccco3)c2)C(=O)N1` (stereo not given): 801 s; `CC1=C(c2ccc(C)cc2)S(=O)(=O)N=C1N1CCCN(C(=O)Cc2cccnc2)CC1`: 624 s; `COc1ccc(-c2ccc(=O)n(Cc3nc(-c4ccccc4Cl)no3)n2)cc1`: 962 s.
`O=C(COc1ccccc1-c1nnc(-c2ccccc2)o1)NCc1ccco1` returned an RP-LC retention time of 961 s.
`CS(=O)(=O)N1CCCN(C(=O)C2(c3ccccc3)CC2)c2ccccc21` showed an RP-LC retention time of 761 s.
The molecule `Cc1nn(CC(=O)NCCCN2CC(C)CC(C)C2)c(=O)c2c1sc1ccccc12` (stereo not given) returned an RP-LC retention time of 691 s.
For the molecule `CN(C)S(=O)(=O)c1ccc(C(=O)Nc2sc3c(c2C#N)CC(C)(C)NC3(C)C)cc1`, the RP-LC retention time came out at 574 s.
In turn, `CN1C(=O)c2cccnc2Sc2cc(C(=O)NC3CCCCC3)ccc21` gave an RP-LC retention time of 773 s.
The molecule `Cc1ccccc1CN1CCN(CC(=O)NCc2ccc3c(c2)OCO3)C(=O)C1=O` came in with an RP-LC retention time of 715 s.
Molecule `COc1ccccc1NS(=O)(=O)c1c(C)nn(-c2ccc(-c3ccc(C)cc3)nn2)c1C` gave an RP-LC retention time of 1150 s.
The molecule `CCOC(=O)N1CCN(C(=O)C2CN(C(=O)c3c[nH]c4ccccc34)C2)CC1` returned an RP-LC retention time of 633 s.
Molecule `Cc1ccc(-c2noc(CCN3CCN(c4ncccn4)CC3)n2)cc1` had an RP-LC retention time of 677 s.
For `CCN(CC)C(=O)c1ccc2c(c1)N(CC(=O)NCCN1CCCCCC1)C(=O)CO2`, the RP-LC retention time came to 603 s.
Next, `CCC(C)NC(=O)CC1CCN(C(=O)c2[nH]c(C)c(C(=O)OC(C)C)c2C)CC1` (stereo not given): 775 s.
The molecule `CCn1cnc(S(=O)(=O)N2CCC(C(=O)Nc3ccc4c(c3)OCO4)CC2)c1` returned an RP-LC retention time of 688 s.
For the molecule `NC(=O)c1nnn(Cc2ccccc2F)c1N`, the RP-LC retention time came to 596 s.
